Experimental data: the NIST ThermoML archive (doi:10.1016/j.jct.2010.03.002)

Assay: xn = mol fraction of the nth substance listed
Settings: 101 kPa, Liquid; for viscosity: Capillary tube (Ostwald / Ubbelohde) method; for mass density: Vibrating tube method

CCCCCCn1cc[n+](C)c1.[Br-] [3-hexyl-1-methyl-1H-imidazolium bromide] + O
Settings | mass density, 293.15 K [kg/m3] | mass density, 303.15 K [kg/m3] | mass density, 313.15 K [kg/m3] | mass density, 323.15 K [kg/m3] | mass density, 333.15 K [kg/m3] | viscosity, 293.15 K [mPa·s] | viscosity, 303.15 K [mPa·s] | viscosity, 313.15 K [mPa·s] | viscosity, 323.15 K [mPa·s] | viscosity, 333.15 K [mPa·s]
x2 = 0 | 1227.4 | 1220.1 | 1213.3 | 1205.7 | 1198.6 | 6936 | 2239 | 851.65 | 512.14 | 350.69
x2 = 0.1225 | 1223.4 | 1216.1 | 1209.3 | 1201.8 | 1194.6 | 3519 | 1255 | 503.66 | 302.69 | 201.69
x2 = 0.2196 | 1220.4 | 1213.2 | 1206.4 | 1198.8 | 1191.5 | 1578 | 695.45 | 320.14 | 180.56 | 115.66
x2 = 0.2978 | 1217.9 | 1210.8 | 1204 | 1196.2 | 1189 | 776.62 | 395.49 | 194.1 | 117.64 | 77.41
x2 = 0.348 | 1216.3 | 1209 | 1202.2 | 1194.6 | 1187.4 | 507.8 | 265.62 | 143.5 | 89.65 | 57.52
x2 = 0.4166 | 1213.4 | 1206.2 | 1199.5 | 1192 | 1184.8 | 313.52 | 168.31 | 97.98 | 60.85 | 40.03
x2 = 0.504 | 1208.7 | 1201.6 | 1194.9 | 1187.5 | 1180.3 | 173.73 | 98.93 | 60.18 | 38.59 | 26.69
x2 = 0.5701 | 1203.9 | 1196.8 | 1190.1 | 1182.7 | 1175.8 | 111.42 | 65.77 | 41.24 | 27.69 | 19.36
x2 = 0.6405 | 1196.9 | 1189.9 | 1183.3 | 1176 | 1169 | 70.83 | 43.45 | 28.14 | 19.39 | 14.63
x2 = 0.7285 | 1184.3 | 1177.3 | 1170.7 | 1163.5 | 1156.5 | 36.4 | 22.54 | 15.13 | 10.75 | 7.929
x2 = 0.816 | 1163.7 | 1156.9 | 1150.1 | 1142.9 | 1136.3 | 18.13 | 12.1 | 8.492 | – | 4.762
x2 = 0.9048 | 1123.6 | 1117.3 | 1110.7 | 1104.4 | 1097.6 | 6.655 | 4.764 | 3.519 | 2.744 | 2.184
x2 = 0.9241 | 1109.4 | 1103.6 | 1097 | 1090.9 | 1084.2 | 4.951 | 3.619 | 2.764 | 2.165 | 1.733
x2 = 0.944 | 1091.2 | 1085.4 | 1079.5 | 1073.6 | 1067.2 | 3.48 | 2.622 | – | 1.6 | 1.301
x2 = 0.9613 | 1070.9 | 1065.7 | 1060.4 | 1054.7 | 1048.5 | 2.438 | 1.86 | 1.469 | – | 0.982
x2 = 0.9899 | 1022.6 | 1019.2 | 1015.1 | 1010.1 | 1004.2 | 1.342 | 1.047 | 0.846 | 0.695 | 0.588
